Results published in ChEMBL document CHEMBL4261494, “Design, synthesis and biological evaluation of novel Schiff base-bridged tetrahydroprotoberberine triazoles as a new type of potential antimicrobial agents” (Medchemcomm, 2017).
Converted amounts (≈) assume the structure as drawn. The source made the active and inactive calls. No cut-off for these calls is given here.

Legend:
Salmonella typhi = assay: microbe, parasite or virus in culture; settings: Salmonella enterica, 24 h
Staphylococcus aureus [1] = assay type: functional; settings: N315, 24 h
Escherichia coli [2] = assay type: functional; settings: DH52, 24 h
Staphylococcus aureus [3] = assay type: functional; settings: ATCC 25923, 24 h
Proteus vulgaris = assay type: functional; settings: ATCC 13315, 24 h
Candida albicans = assay type: functional; settings: for Activity: ATCC 10231
Escherichia coli [4] = assay type: functional; settings: JM109, 24 h
Micrococcus luteus = assay type: functional; settings: ATCC 4698, 24 h
[5] = Aqueous solubility of the compound in pH 7.4 phosphate buffer at 1 mg after 3 hrs by UV absorption analysis; assay type: physicochemical
Shigella dysenteriae = assay type: functional; settings: 24 h
Aspergillus flavus = assay type: functional; settings: for Activity: ATCC 204304
Kregervanrija fluxuum = assay type: functional; settings: for Activity: ATCC 9888
Bacillus spizizenii = assay type: functional; settings: ATCC 6633, 24 h
Cyberlindnera jadinii = assay type: functional; settings: for Activity: ATCC 9950; for MIC: Williopsis jadinii, ATCC 9950, 24 h
Saccharomyces cerevisiae = assay type: functional; settings: 24 h
Pseudomonas aeruginosa = assay type: functional; settings: ATCC 27853, 24 h
Calf thymus DNA [6] = assay: Binding affinity to calf thymus DNA by UV absorption spectral analysis; assay type: nucleic-acid assay; settings: Bos taurus
Staphylococcus aureus [7] = assay: Antibacterial activity against methicillin-resistant Staphylococcus aureus N315 after 14 passages; assay type: functional, organism-based
Staphylococcus aureus [8] = assay: Bactericidal activity against methicillin-resistant Staphylococcus aureus N315 assessed as log reduction in viable bacterial count at 4 times MIC incubated up to 1 hr followed by replating on yeast-dextrose agar plates and measured after 24 hrs by time kill assay; assay type: functional
Calf thymus DNA [9] = assay: Binding affinity to calf thymus DNA assessed as increase in hypochromic effect up to 2 x 10^-5 mol/L by UV absorption spectral analysis; assay type: nucleic-acid assay; settings: Bos taurus
Staphylococcus aureus [10] = assay: Potency index, ratio of chloromycin MIC to test compound MIC for methicillin-resistant Staphylococcus aureus N315; assay type: functional
Albumin [11] = molecular target: T1, Albumin (Homo sapiens, UniProt P02768); assay: Binding affinity to HSA assessed as quenching constant at 298 K by UV-vis absorption spectral analysis; assay type: ADME; settings: isolated protein
Staphylococcus aureus [12] = assay: Potency index, ratio of norfloxacin MIC to test compound MIC for methicillin-resistant Staphylococcus aureus N315; assay type: functional
Albumin [13] = molecular target: T1, Albumin; assay: Binding affinity to HSA assessed as quenching constant at 310 K by UV-vis absorption spectral analysis; assay type: ADME; settings: isolated protein
Calf thymus DNA [14] = assay: Inhibition of neutral red binding to calf thymus DNA up to 2 x 10^-5 mol/L by UV absorption spectral analysis; assay type: nucleic-acid assay; settings: Bos taurus
DNA [15] = assay: Induction of Escherichia coli supercoiled pUC19 DNA cleavage at 0.0125 mM after 16 hrs in absence of Zn2+ by ethidium bromide staining-based agarose gel electrophoresis method; assay type: nucleic-acid assay
Albumin [16] = molecular target: T1, Albumin; assay: Binding affinity to HSA assessed as quenching constant at 288 K by UV-vis absorption spectral analysis; assay type: ADME; settings: isolated protein
DNA [17] = assay: Induction of Escherichia coli supercoiled pUC19 DNA cleavage at 0.0125 mM after 16 hrs in presence of Zn2+ by ethidium bromide staining-based agarose gel electrophoresis method; assay type: nucleic-acid assay

T1 sequence (P02768 whole entry): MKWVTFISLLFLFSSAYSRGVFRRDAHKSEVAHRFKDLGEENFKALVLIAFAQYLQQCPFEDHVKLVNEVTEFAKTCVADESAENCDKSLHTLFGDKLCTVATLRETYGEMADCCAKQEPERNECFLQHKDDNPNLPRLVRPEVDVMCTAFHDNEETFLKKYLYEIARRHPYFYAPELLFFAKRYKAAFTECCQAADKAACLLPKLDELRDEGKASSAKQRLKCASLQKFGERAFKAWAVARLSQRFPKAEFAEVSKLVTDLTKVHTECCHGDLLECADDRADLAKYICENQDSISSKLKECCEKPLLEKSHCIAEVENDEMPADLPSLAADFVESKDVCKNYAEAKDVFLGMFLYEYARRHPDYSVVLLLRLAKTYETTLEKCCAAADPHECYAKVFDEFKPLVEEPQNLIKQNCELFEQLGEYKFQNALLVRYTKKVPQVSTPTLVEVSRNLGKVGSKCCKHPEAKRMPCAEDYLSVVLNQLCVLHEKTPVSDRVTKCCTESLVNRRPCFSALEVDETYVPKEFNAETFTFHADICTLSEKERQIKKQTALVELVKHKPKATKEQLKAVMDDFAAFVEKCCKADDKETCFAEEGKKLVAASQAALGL

Row | SMILES | MIC (Salmonella typhi) | MIC (Staphylococcus aureus [1]) | MIC (Escherichia coli [2]) | MIC (Staphylococcus aureus [3]) | MIC (Proteus vulgaris) | MIC (Escherichia coli [4]) | MIC (Micrococcus luteus) | solubility at 3 h [5] | MIC (Shigella dysenteriae) | MIC (Bacillus spizizenii) | MIC (Pseudomonas aeruginosa) | further results
1 | COc1cc(C=O)c2c(c1O)CN1CCc3cc4c(cc3C1C2)OCO4 (stereo unspecified) | 2 µg/mL (≈ 5.66 µM) | 256 µg/mL (≈ 724 µM) | 256 µg/mL (≈ 724 µM) | 128 µg/mL (≈ 362 µM) | 64 µg/mL (≈ 181 µM) | 256 µg/mL (≈ 724 µM) | 2 µg/mL (≈ 5.66 µM) | 79 µg/mL (≈ 224 µM) | 512 µg/mL (≈ 1450 µM) | 32 µg/mL (≈ 90.6 µM) | 16 µg/mL (≈ 45.3 µM) | Activity (Candida albicans): inactive; Activity (Aspergillus flavus): inactive; Activity (Kregervanrija fluxuum): inactive; Activity (Cyberlindnera jadinii): inactive; MIC (Saccharomyces cerevisiae): 1 µg/mL (≈ 2.83 µM)
2 | COc1cc(/C=N/n2cnnc2)c2c(c1O)CN1CCc3cc4c(cc3C1C2)OCO4 (stereo unspecified) | 128 µg/mL (≈ 305 µM) | 16 µg/mL (≈ 38.1 µM) | 128 µg/mL (≈ 305 µM) | 64 µg/mL (≈ 153 µM) | 64 µg/mL (≈ 153 µM) | 128 µg/mL (≈ 305 µM) | 1 µg/mL (≈ 2.38 µM) | 392 µg/mL (≈ 935 µM) | 256 µg/mL (≈ 610 µM) | 512 µg/mL (≈ 1220 µM) | 128 µg/mL (≈ 305 µM) | Activity (Candida albicans): inactive; Activity (Aspergillus flavus): inactive; Activity (Kregervanrija fluxuum): inactive; Activity (Cyberlindnera jadinii): inactive
3 | COc1cc(/C=N/n2cnnc2)c2c(c1OCc1ccccc1)CN1CCc3cc4c(cc3C1C2)OCO4 (stereo unspecified) | 4 µg/mL (≈ 7.85 µM) | 2 µg/mL (≈ 3.92 µM) | 16 µg/mL (≈ 31.4 µM) | 8 µg/mL (≈ 15.7 µM) | 16 µg/mL (≈ 31.4 µM) | 32 µg/mL (≈ 62.8 µM) | 1 µg/mL (≈ 1.96 µM) | 178 µg/mL (≈ 349 µM) | 32 µg/mL (≈ 62.8 µM) | 32 µg/mL (≈ 62.8 µM) | 8 µg/mL (≈ 15.7 µM) | K (Calf thymus DNA [6]): 2.27 ×10⁴ L/mol; Activity (Staphylococcus aureus [7]): Active; FC (Staphylococcus aureus [8]): >3; Activity (Calf thymus DNA [9]): Active; Ratio (Staphylococcus aureus [10]): 8; MIC (Candida albicans; ATCC 10231, 24 h): 0.5 to 32 µg/mL (≈ 0.981 to 62.8 µM); Kq (Albumin [11]): 2.05 ×10¹³ L/mol/s; Ratio (Staphylococcus aureus [12]): 4; Kq (Albumin [13]): 1.7 ×10¹³ L/mol/s; MIC (Aspergillus flavus; ATCC 204304, 24 h): 0.5 to 32 µg/mL (≈ 0.981 to 62.8 µM); inhibition (Calf thymus DNA [14]): Active; Activity (DNA [15]): inactive; MIC (Kregervanrija fluxuum; ATCC 9888, 24 h): 0.5 to 32 µg/mL (≈ 0.981 to 62.8 µM); MIC (Cyberlindnera jadinii): 0.5 to 32 µg/mL (≈ 0.981 to 62.8 µM); MIC (Saccharomyces cerevisiae): 0.5 µg/mL (≈ 0.981 µM); Kq (Albumin [16]): 2.55 ×10¹³ L/mol/s; Activity (DNA [17]): Active
4 | CCCCCCCCCCCCOc1c(OC)cc(/C=N/n2cnnc2)c2c1CN1CCc3cc4c(cc3C1C2)OCO4 (stereo unspecified) | 256 µg/mL (≈ 436 µM) | 512 µg/mL (≈ 871 µM) | 256 µg/mL (≈ 436 µM) | 256 µg/mL (≈ 436 µM) | 256 µg/mL (≈ 436 µM) | 512 µg/mL (≈ 871 µM) | 512 µg/mL (≈ 871 µM) | 97 µg/mL (≈ 165 µM) | 512 µg/mL (≈ 871 µM) | 256 µg/mL (≈ 436 µM) | 512 µg/mL (≈ 871 µM) | –
5 | COc1cc(/C=N/n2cnnc2)c2c(c1OCc1ccc(Cl)cc1)CN1CCc3cc4c(cc3C1C2)OCO4 (stereo unspecified) | 8 µg/mL (≈ 14.7 µM) | 32 µg/mL (≈ 58.8 µM) | 32 µg/mL (≈ 58.8 µM) | 8 µg/mL (≈ 14.7 µM) | 8 µg/mL (≈ 14.7 µM) | 8 µg/mL (≈ 14.7 µM) | 16 µg/mL (≈ 29.4 µM) | 613 µg/mL (≈ 1130 µM) | 64 µg/mL (≈ 118 µM) | 16 µg/mL (≈ 29.4 µM) | 4 µg/mL (≈ 7.35 µM) | MIC (Cyberlindnera jadinii): 0.5 µg/mL (≈ 0.919 µM)
6 | COc1cc(/C=N/n2cnnc2)c2c(c1OCc1cccc(Cl)c1)CN1CCc3cc4c(cc3C1C2)OCO4 (stereo unspecified) | 256 µg/mL (≈ 471 µM) | 256 µg/mL (≈ 471 µM) | 512 µg/mL (≈ 941 µM) | 256 µg/mL (≈ 471 µM) | 512 µg/mL (≈ 941 µM) | 0.5 µg/mL (≈ 0.919 µM) | 512 µg/mL (≈ 941 µM) | – | 64 µg/mL (≈ 118 µM) | 512 µg/mL (≈ 941 µM) | 512 µg/mL (≈ 941 µM) | –
7 | CCCCCCCCCCOc1c(OC)cc(/C=N/n2cnnc2)c2c1CN1CCc3cc4c(cc3C1C2)OCO4 (stereo unspecified) | 16 µg/mL (≈ 28.6 µM) | 32 µg/mL (≈ 57.2 µM) | 64 µg/mL (≈ 114 µM) | 32 µg/mL (≈ 57.2 µM) | 64 µg/mL (≈ 114 µM) | 128 µg/mL (≈ 229 µM) | 64 µg/mL (≈ 114 µM) | – | 128 µg/mL (≈ 229 µM) | 32 µg/mL (≈ 57.2 µM) | 128 µg/mL (≈ 229 µM) | –
8 | CCOc1c(OC)cc(/C=N/n2cnnc2)c2c1CN1CCc3cc4c(cc3C1C2)OCO4 (stereo unspecified) | 256 µg/mL (≈ 572 µM) | 8 µg/mL (≈ 17.9 µM) | 512 µg/mL (≈ 1140 µM) | 256 µg/mL (≈ 572 µM) | 32 µg/mL (≈ 71.5 µM) | 256 µg/mL (≈ 572 µM) | 16 µg/mL (≈ 35.8 µM) | – | 512 µg/mL (≈ 1140 µM) | 128 µg/mL (≈ 286 µM) | 256 µg/mL (≈ 572 µM) | –
9 | COc1ccc2cc3[n+](cc2c1OC)CCc1cc2c(cc1-3)OCO2 [BERBERINE] | – | 128 µg/mL | > 512 µg/mL | 512 µg/mL | – | – | > 512 µg/mL | 85 µg/mL | 256 µg/mL | > 512 µg/mL | 256 µg/mL | Activity (DNA [15]): inactive
